{"source": "paper PMC6136660", "about": "(Steroids, 2018)", "target": "T1, mineralocorticoid receptor (Homo sapiens, UniProt P08235)", "T1 sequence (P08235 1-984)": "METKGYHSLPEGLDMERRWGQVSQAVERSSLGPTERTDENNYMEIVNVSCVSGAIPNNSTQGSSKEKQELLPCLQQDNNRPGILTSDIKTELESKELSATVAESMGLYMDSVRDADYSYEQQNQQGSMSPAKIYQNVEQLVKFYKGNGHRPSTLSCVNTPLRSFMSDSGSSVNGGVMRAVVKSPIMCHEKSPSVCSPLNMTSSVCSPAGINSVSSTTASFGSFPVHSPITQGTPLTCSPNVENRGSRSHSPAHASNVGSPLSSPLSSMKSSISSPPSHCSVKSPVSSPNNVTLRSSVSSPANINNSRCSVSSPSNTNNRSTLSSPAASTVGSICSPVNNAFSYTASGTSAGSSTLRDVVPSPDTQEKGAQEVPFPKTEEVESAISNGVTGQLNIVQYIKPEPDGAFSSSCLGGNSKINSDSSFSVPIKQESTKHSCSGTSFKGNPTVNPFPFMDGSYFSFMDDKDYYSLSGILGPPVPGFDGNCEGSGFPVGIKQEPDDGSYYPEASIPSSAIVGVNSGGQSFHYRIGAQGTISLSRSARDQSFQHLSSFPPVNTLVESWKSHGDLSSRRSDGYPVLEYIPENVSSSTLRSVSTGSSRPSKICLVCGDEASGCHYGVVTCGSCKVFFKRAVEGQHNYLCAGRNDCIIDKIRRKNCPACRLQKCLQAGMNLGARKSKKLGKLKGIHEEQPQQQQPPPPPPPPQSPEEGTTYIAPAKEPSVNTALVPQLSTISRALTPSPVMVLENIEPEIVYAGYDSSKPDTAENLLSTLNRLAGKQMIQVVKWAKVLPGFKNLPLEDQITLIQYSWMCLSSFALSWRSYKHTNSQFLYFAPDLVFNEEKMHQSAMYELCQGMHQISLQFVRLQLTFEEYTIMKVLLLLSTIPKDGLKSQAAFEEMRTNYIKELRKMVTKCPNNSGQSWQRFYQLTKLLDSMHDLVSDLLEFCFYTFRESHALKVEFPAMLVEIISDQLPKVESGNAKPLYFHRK", "experiment": "In vitro reporter assays for steroid hormone receptors, agonist and antagonist modes", "format": "cell-based", "conditions": "in vitro reporter assays (unpublished observations)", "from_the_text": "In addition to the dissociation of […] (lost) and transrepression (retained) activities, vamorolone has changed additional sub-activities of traditional glucocorticoids. Cortisol and pharmacological glucocorticoids show high affinity for the mineralocorticoid receptor, similar to its physiological ligand, aldosterone. Glucocorticoids and aldosterone act as agonists for the mineralocorticoid receptor, and high circulating levels of pharmacological glucocorticoids result in salt imbalance and water weight gain (Cushingoid appearance) via the reninangiotensin system. […] Vamorolone can not be metabolized by 11β-Hydroxysteroid dehydrogenase (11BHSD) isoforms, and thus should show greater stability in aldosterone-responsive cells (e.g. not inactivated as cortisol and glucocorticoids are).", "data": [{"compound": "C[C@@H]1C[C@H]2[C@@H]3CCC4=CC(=O)C=C[C@]4(C)C3=CC[C@]2(C)[C@@]1(O)C(=O)CO", "note": "[vamorolone]", "values": [{"measurement": "activity at the mineralocorticoid receptor", "value": "potent antagonist"}]}]}
